This is an account of results in patent publication US8889902B2, “Acetylsalicylic acid salts” (priority 2009, dated 2014).

In one data set the test system is CRP. Briefly: CRP levels in blood, carrageneen inflammation model. In kind it is in vivo, rats. As to conditions: 100 mg/kg; for CRP: 5 h after carrageneen; for CRP increase %: carrageneen control = 100. The procedure: To evaluate the intensity of the inflammation process the CRP levels were determined by standard method on analyzer ? INTEGRA 400+ ? at the end of experiment (5 hours after injection of carrageneen).

The subject of data set [1] is adjuvant arthritis induced by Freund's adjuvant. The data set is described as follows: Adjuvant arthritis: paw volume and ankle joint. As to conditions: for Prevention %, paw volume Day 14 / Prevention %, paw volume Day 28: vs AdA. In kind it is in vivo, Wistar rats. The source says:
Our experiments were scheduled to test the influence of MASA on the progress of adjuvant arthritis in comparison with MD and ASA. […] Each standard cage housed 7 rats with unlimited access to drinking water and granulated standard feed. […] All efforts were made to minimize animal suffering and to reduce the number of animals used. A modified standard procedure for inducting and evaluating the progress of chronic adjuvant arthritis was used (Bellavite P, Ortolani R, Conforti A, Immunology and Homeopathy. 3. Experimental Studies on Animal Models, Advance Access Publication 2.05, 2006, 171-186). […] The solutions of test substances were prepared ex tempore. […] Test solutions were introduced to animal p.o. by catheter into the stomach. […] The effects of test substances were evaluated using the following criteria: The oedema, i.e. the volume of hind paw was measured by oncometer. The percentage of prevention (inhibition of oedema) was calculated according to formula: P(%)=(Vc−Vt)/Vc×100, where Vc—paw volume in control group Vt—paw volume in test group P—Prevention in % (inhibition of oedema).

For data set [2], the system named is platelet aggregation. The data set is described as follows: Platelet aggregation in vitro, whole blood impedance aggregometry (Multiplate). The data set is classed as cell-based, healthy donor. As to conditions: 10^−4. On the procedure: Platelet aggregation was studied using whole blood impedance aggregometry on Multiplate (Multiple Platelet Function Analyzer, Dynabyte Medical, Germany) (Toth O et al, Thromb Haemost 2006; 96:781-788. […] Blood samples for in vitro experiment were collected from healthy donor B. […] In the ex vivo experiment blood was collected into plastic tubes covered with hirudin (Dynabyte Medical, Germany) from narcotized rats that were treated for 3 previous days with test substances p.o. The measurements were performed according to modified Dynabyte Medical protocol. […] After 5 min incubation and stirring at 37° C., measurements were initiated by adding of the appropriate agonist solution (sourced from Dynabyte Medical, Germany): 1) adenosine diphosphate (ADP)-ADP-Test. ADP stimulates platelet activation by the ADP receptors (P2Y 12 and other). […] 3) ADP HS test (prostaglandin E1 in combination with ADP). […] Aggregation curves were recorded for 6 min. and analyzed using Dynabyte Medical software. We calculated the following parameters of platelet aggregation: […] It is affected by the total height of the aggregation curve as well as by its slope and is best suited to express the overall platelet activity.

The subject of data set [3] is platelet aggregation. The data set is described as follows: Platelet aggregation ex vivo after 3 days treatment. As to conditions: 5 mg/kg/d p.o. 3 days. The data set is classed as in vivo, rats. The procedure: Platelet aggregation was studied using whole blood impedance aggregometry on Multiplate (Multiple Platelet Function Analyzer, Dynabyte Medical, Germany) (Toth O et al, Thromb Haemost 2006; 96:781-788. […] Blood samples for in vitro experiment were collected from healthy donor B. […] In the ex vivo experiment blood was collected into plastic tubes covered with hirudin (Dynabyte Medical, Germany) from narcotized rats that were treated for 3 previous days with test substances p.o. The measurements were performed according to modified Dynabyte Medical protocol. […] After 5 min incubation and stirring at 37° C., measurements were initiated by adding of the appropriate agonist solution (sourced from Dynabyte Medical, Germany): After the thrombosis experiment the narcotized animals who received test substances for 3 days were used for platelet aggregation test ex vivo. […] Blood samples were used for measurement between 30 min and 4 h after collection. The measurements were performed according to modified Dynabyte Medical protocol (see above under Platelet aggregation).

The test system of the next data set is Wistar rats. To be noted: rats p.o., cited from earlier work.
The subject of data set [4] is serum lipid levels (C, HDL, LDL, TG). The data set is described as follows: Chronic hyperlipidemia model (Triton WR1339, 3 weeks). As to conditions: NA 50 mg/kg/d p.o.; TR 250 mg/kg 3x/week. In kind it is in vivo, Wistar rats. The procedure: Male Wistar rats were used. Animals were held in climatized rooms 22±1° C. with relative humidity 60±5%, and 12/12-hour light/dark cycle with free access to water and feed. Initial weight of animals was 220-240 g. Experimental chronical (subchronical) hyperlipidemia/hypercholesterolemia was induced by TR using the method described by Levine and Saltzman (Levine S, Saltzman A, J Pharmacol Toxicol Meth 2007; 55:224-226). Animals received 250 mg/kg of TR solution via tail vein three times a week for 3 weeks. Solutions of test substances or water for Control and TR group was introduced p.o. once a day one hour before injection of TR solution or taking a blood sample according to the following scheme:
Blood for biochemical analyses was obtained after 1, 2 and 3 weeks (on the next day after the TR injection) by cardiac punction under ether narcosis. Serum was separated by centrifugation and analyzed for total C, HDL, LDL and TG levels by commercial kits. Statistics.

In data set [5] the test system is blood flow in the right ear artery. Briefly: Cutaneous vasodilatation caused by nicotinic acid, ear artery blood flow. The data set is classed as in vivo, Wistar rats. As to conditions: 15 mg/kg s.c.; maximal change to baseline. The procedure: Model. […] Blood pressure was measured in left carotid artery, ECG recorded by standard II lead. […] Blood flow, ECG and arterial pressure were registered by AD Instruments PowerLab systems and stored in computer for further processing. […] The average blood flow data for each animal were calculated taking into account the average blood pressure and compared with initial and control. […] Statistics.

Values joined by “and” are separate entries in the source; they are usually repeats but may differ in a detail not shown here. Identical values can stand only once. Bounds are passed on as bounds.

Consider `CC(=O)Oc1ccccc1C(=O)O` [ASA, acetylsalicylic acid], for which, in the data set with CRP, the CRP was found to be 0.20 ± 0.018 mg/L and the CRP increase % is on record as 50%. For the same compound, in data set [1] (10 mg/kg daily p.o.), the “Dimensions of ankle joint on Day 14” value stood at 7.2 ± 0.12 mm, the “Dimensions of ankle joint on Day 28” value turned out to be 6.8 ± 0.14 mm, the “Paw volume on Day 14” value is 2.53 ± 0.10 mL and the “Paw volume on Day 28” value stood at 2.08 ± 0.12 mL. In data set [1] (10 mg/kg daily p.o.), the “Prevention %, paw volume Day 14” value was −7% and the “Prevention %, paw volume Day 28” value was found to be 7%. In data set [1] (100 mg/kg daily p.o.), the “Dimensions of ankle joint on Day 14” value was determined as 6.9 ± 0.15 mm, the “Dimensions of ankle joint on Day 28” value stood at 7.1 ± 0.16 mm, the “Paw volume on Day 14” value amounted to 2.35 ± 0.14 mL and the “Paw volume on Day 28” value came out at 1.52 ± 0.07 mL. Further, in data set [1] (100 mg/kg daily p.o.), the “Prevention %, paw volume Day 14” value is on record as 3% and the “Prevention %, paw volume Day 28” value stood at 32%. Moreover, in the data set on platelet aggregation [2] (AA induced), the AUC is 450 ± 24.8^2#@ AU*min and 450 ± 24.8^3a@ AU*min; the Amax was 103.1 ± 5.9^2#@ AU and 103.1 ± 5.9^2a@ AU. In addition, in the data set on platelet aggregation [2] (ADP induced), the AUC worked out at 883 ± 50.3 AU*min and the Amax was found to be 151.7 ± 9.3 AU. In addition, in the data set on platelet aggregation [2] (PGE1 + ADP induced), the AUC came out at 961 ± 35.0 AU*min and the Amax stood at 162.5 ± 8.7 AU. Also, in the data set on platelet aggregation [3] (AA induced), the AUC was 550 ± 31.3^2 AU*min and the Amax is reported as 86.1 ± 6.8^2 AU. In addition, in the data set on platelet aggregation [3] (ADP induced), the AUC turned out to be 768 ± 53.2 AU*min and the Amax came to 150.3 ± 13.5 AU. In addition, in the data set with platelet aggregation [3] (PGE1 + ADP induced), the AUC came to 794 ± 48.6 AU*min and the Amax stood at 147.2 ± 11.8 AU. Also, the LD50 in the data set on Wistar rats (given by Bayer AG) was greater than 1100 mg/kg. In addition, in the data set with Wistar rats (given by Boehringer Ingelheim, Acros Chemicals, Sigma-Aldrich), the “Acute toxicity (LD50)” value is 200 mg/kg.
In the case of `O=C(O)c1cccnc1` [NA, nicotinic acid], in data set [4], the “HDL after 1 week (HDL1)” value came out at 111.3 ± 9.1 mg/dL, the “HDL after 2 weeks (HDL2)” value worked out at 144.7 ± 13.5 mg/dL, the “HDL after 3 weeks (HDL3)” value stood at 127.3 ± 10.9 mg/dL and the “LDL after 1 week (LDL1)” value is 216.3 ± 14.0 mg/dL. Also, in data set [4], the “LDL after 2 weeks (LDL2)” value came out at 250.3 ± 20.6 mg/dL, the “LDL after 3 weeks (LDL3)” value was determined as 265.1 ± 18.4 mg/dL, the “TG after 1 week (TG1)” value worked out at 734 ± 81.6 mg/dL and the “TG after 2 weeks (TG2)” value was 860 ± 73.8 mg/dL. In addition, in data set [4], the “TG after 3 weeks (TG3)” value was determined as 828 ± 44.7 mg/dL, the “Total C after 1 week (C1)” value turned out to be 345 ± 15.7 mg/dL, the “Total C after 2 weeks (C2)” value turned out to be 401.1 ± 25.1 mg/dL and the “Total C after 3 weeks (C3)” value came out at 405.5 ± 25.9 mg/dL. Also, in the data set on platelet aggregation [2] (AA induced), the AUC was 1010 ± 41.7 AU*min and the Amax came to 161.1 ± 9.4 AU. In the data set with platelet aggregation [2] (ADP induced), the AUC was 859 ± 62.5 AU*min and the Amax is 148.0 ± 5.2^1 AU. Besides, in the data set on platelet aggregation [2] (PGE1 + ADP induced), the AUC was found to be 862 ± 51.9 AU*min and the Amax was found to be 146.7 ± 8.6 AU. In addition, the “Changes in blood flow, %” value in data set [5] turned out to be 55.75 ± 11.5 %.
Regarding `C[N+](C)(C)NCCC(=O)[O-].O.O` [MD, 3-(Trimethylammonioamino)propanoate dihydrate], in the data set on CRP, the CRP is 0.22 ± 0.014 mg/L and the CRP increase % was determined as 83%. Besides, in data set [1] (100 mg/kg daily p.o.), the “Dimensions of ankle joint on Day 14” value is on record as 7.0 ± 0.13 mm, the “Dimensions of ankle joint on Day 28” value was found to be 7.0 ± 0.13 mm, the “Paw volume on Day 14” value was 2.60 ± 0.21 mL and the “Paw volume on Day 28” value stood at 1.93 ± 0.13 mL. Further, in data set [1] (100 mg/kg daily p.o.), the “Prevention %, paw volume Day 14” value is on record as −7% and the “Prevention %, paw volume Day 28” value is given as 13%. For the same compound, in the data set on platelet aggregation [2] (AA induced), the AUC is recorded as 1050 ± 37.6^& AU*min and the Amax is recorded as 179.5 ± 7.3^& AU. In addition, in the data set with platelet aggregation [2] (ADP induced), the AUC is listed as 869 ± 36.3 AU*min and the Amax was determined as 153.2 ± 6.1 AU. In the data set with platelet aggregation [2] (PGE1 + ADP induced), the AUC is listed as 587 ± 37.4^2&& AU*min and the Amax is 101.4 ± 2.2^2&& AU.

A word on the LD50: it is the dose expected to kill half of the subjects tested.
